Results from ChEMBL document CHEMBL1125935, “(Phenylmethoxy)phenyl derivatives of omega-oxo- and omega-tetrazolylalkanoic acids and related tetrazoles. Synthesis and evaluation as leukotriene D4 receptor antagonists” (J Med Chem, 1991).

How the values were obtained:
[1] = species on record: Cavia porcellus; test: Antagonistic activity with LTD4 as agonist in trachea tissue of guinea pig smooth muscles.; assay type: functional, Muscle tissue
[2] = species on record: Cavia porcellus; test: Antagonistic activity with LTC4 as agonist in ileum tissue of guinea pig smooth muscles.; assay type: functional
[3] = species on record: Cavia porcellus; test: Antagonistic activity with LTE4 as agonist in ileum tissue of guinea pig smooth muscles.; assay type: functional
[4] = species on record: Cavia porcellus; test: Antagonistic activity with LTE4 as agonist in trachea tissue of guinea pig smooth muscles.; assay type: functional, Muscle tissue
[5] = species on record: Cavia porcellus; test: pA2 value on guinea pig ileum tissue in presence of LTE4 as agonist; assay type: functional; conditions: read-out: pA2 (converted)
[6] = species on record: Cavia porcellus; test: Antagonistic activity with LTD4 as agonist in ileum tissue of guinea pig smooth muscles.; assay type: functional
[7] = species on record: Cavia porcellus; test: Antagonistic activity with LTC4 as agonist in trachea tissue of guinea pig smooth muscles.; assay type: functional, Muscle tissue
[8] = species on record: Cavia porcellus; test: pA2 value on guinea pig trachea tissue in presence of LTE4 as agonist; assay type: functional; conditions: read-out: pA2 (converted)
[9] = species on record: Cavia porcellus; test: pA2 value on guinea pig ileum tissue in presence of LTD4 as agonist; assay type: functional; conditions: read-out: pA2 (converted)
[10] = species on record: Cavia porcellus; test: pA2 value on guinea pig trachea tissue in presence of LTD4 as agonist; assay type: functional; conditions: read-out: pA2 (converted)
[11] = species on record: Cavia porcellus; test: Antagonistic activity with Histamin as agonist in ileum tissue of guinea pig smooth muscles.; assay type: functional
[12] = species on record: Cavia porcellus; test: Antagonistic activity with Carbamylcholine as agonist in trachea tissue of guinea pig smooth muscles.; assay type: functional, Muscle tissue
[13] = species on record: Cavia porcellus; test: Antagonistic activity with LTE4 as agonist in parenchyma tissue of guinea pig smooth muscles.; assay type: functional, Muscle tissue
[14] = species on record: Cavia porcellus; test: pA2 value on guinea pig parenchyma tissue in presence of LTE4 as agonist; assay type: functional; conditions: read-out: pA2 (converted)
[15] = species on record: Cavia porcellus; test: Antagonistic activity with LTD4 as agonist in parenchyma tissue of guinea pig smooth muscles.; assay type: functional, Muscle tissue
[16] = species on record: Cavia porcellus; test: Antagonistic activity with Bradykinin as agonist in ileum tissue of guinea pig smooth muscles.; assay type: functional
[17] = species on record: Cavia porcellus; test: pA2 value on guinea pig parenchyma tissue in presence of LTD4 as agonist; assay type: functional; conditions: read-out: pA2 (converted)
[18] = species on record: Cavia porcellus; test: Antagonistic activity with U-46,619 as agonist in trachea tissue of guinea pig smooth muscles.; assay type: functional, Muscle tissue

Row | SMILES | pKB [1] | pKB [2] | pKB [3] | pKB [4] | Kb [5] [nM] | pKB [6] | pKB [7] | Kb [8] [nM] | Kb [9] [nM] | Kb [10] [nM] | pKB [11] | pKB [12] | pKB [13] | Kb [14] [nM] | pKB [15] | pKB [16] | Kb [17] [nM] | pKB [18]
1 | CCCc1c(COc2ccc(Cc3nnn(CCCc4nnn[n-]4)n3)cc2)ccc(C(C)=O)c1O.[Na+] | 6.69 | 5.39 | 8.37 | 7.57 | 3.63 | 7.84 | 5.67 | 26.9 | 12 | 204 | <5 | – | – | – | – | – | – | –
2 | CCc1c(COc2ccc(C(=O)CC(C)(C)CC(=O)[O-])cc2)ccc(C(C)=O)c1O.[Na+] | 6.52 | <5 | 7.73 | 7.09 | 9.77 | 7.46 | <5 | 63.1 | – | – | <5 | <5 | 7.13 | 36.3 | 6.74 | <5 | 138 | <5
